{
  "source": "ChEMBL document CHEMBL2021840",
  "about": "(Eur J Med Chem, 2012)",
  "data": [
    {"test_system": "MCF7", "test": "Antiproliferative activity against human MCF7 cells after 7 days", "assay_type": "functional, cell-based", "details": "MCF7, 168 h; call rule not given here", "units": {"IC50": "µM"}, "values": [
      {"compound": "C[C@H](COc1ccc(C(=O)c2c(-c3ccc(O)cc3)sc3cc(O)ccc23)cc1)N1CCCC1", "IC50": 0.0002},
      {"compound": "C[C@H]1CCN(CCOc2ccc(C(=O)c3c(-c4ccc(O)cc4)sc4cc(O)ccc34)cc2)C1", "IC50": 0.001}
    ]},
    {"target": "T1, Estrogen receptor beta (Homo sapiens, UniProt Q92731)", "T1 sequence (Q92731 whole entry)": "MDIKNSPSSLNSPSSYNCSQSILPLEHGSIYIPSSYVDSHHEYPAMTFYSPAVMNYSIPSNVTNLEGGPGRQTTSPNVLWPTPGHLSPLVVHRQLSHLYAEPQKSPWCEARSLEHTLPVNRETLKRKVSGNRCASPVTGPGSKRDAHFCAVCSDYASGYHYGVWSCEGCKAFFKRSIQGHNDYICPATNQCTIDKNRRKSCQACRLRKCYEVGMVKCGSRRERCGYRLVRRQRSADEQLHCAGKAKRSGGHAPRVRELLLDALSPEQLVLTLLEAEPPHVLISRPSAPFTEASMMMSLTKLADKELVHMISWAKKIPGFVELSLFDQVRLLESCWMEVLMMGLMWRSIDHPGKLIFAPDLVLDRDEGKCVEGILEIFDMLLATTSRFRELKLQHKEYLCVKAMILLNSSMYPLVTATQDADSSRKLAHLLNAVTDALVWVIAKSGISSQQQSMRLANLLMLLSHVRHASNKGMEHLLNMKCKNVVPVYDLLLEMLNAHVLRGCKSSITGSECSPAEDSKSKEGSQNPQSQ", "test": "Displacement of [3H]-17beta-estradiol from ERbeta", "details": "not given", "units": {"IC50": "µM"}, "values": [
      {"compound": "O=C(c1ccc(N2CCN(C(=O)c3ccc(Cl)cc3)CC2)cc1)c1c(-c2ccc(O)cc2)sc2cc(O)ccc12", "IC50": 0.00907}
    ]},
    {"target": "T1, Estrogen receptor beta", "test": "Relative binding affinity to human ERbeta", "details": "not given", "values": [
      {"compound": "O=C(c1ccc(OCCN2CCCCC2)cc1)c1c(-c2ccccc2CCCF)sc2cc(O)ccc12", "relative binding affinity (RBA)": 30},
      {"compound": "O=C(c1ccc(OCCN2CCCCC2)cc1)c1c(-c2ccc(O)cc2CCCF)sc2cc(O)ccc12", "relative binding affinity (RBA)": 24},
      {"compound": "O=C(c1ccc(OCCN2CCCCC2)cc1)c1c(-c2ccccc2CCF)sc2cc(O)ccc12", "relative binding affinity (RBA)": 27},
      {"compound": "C[C@]12CC[C@@H]3c4ccc(O)cc4CC[C@H]3[C@@H]1CC[C@@H]2O", "note": "[ESTRADIOL]", "relative binding affinity (RBA)": 3.5}
    ]},
    {"target": "T2, Estrogen receptor (Homo sapiens, UniProt P03372)", "T2 sequence (P03372 whole entry)": "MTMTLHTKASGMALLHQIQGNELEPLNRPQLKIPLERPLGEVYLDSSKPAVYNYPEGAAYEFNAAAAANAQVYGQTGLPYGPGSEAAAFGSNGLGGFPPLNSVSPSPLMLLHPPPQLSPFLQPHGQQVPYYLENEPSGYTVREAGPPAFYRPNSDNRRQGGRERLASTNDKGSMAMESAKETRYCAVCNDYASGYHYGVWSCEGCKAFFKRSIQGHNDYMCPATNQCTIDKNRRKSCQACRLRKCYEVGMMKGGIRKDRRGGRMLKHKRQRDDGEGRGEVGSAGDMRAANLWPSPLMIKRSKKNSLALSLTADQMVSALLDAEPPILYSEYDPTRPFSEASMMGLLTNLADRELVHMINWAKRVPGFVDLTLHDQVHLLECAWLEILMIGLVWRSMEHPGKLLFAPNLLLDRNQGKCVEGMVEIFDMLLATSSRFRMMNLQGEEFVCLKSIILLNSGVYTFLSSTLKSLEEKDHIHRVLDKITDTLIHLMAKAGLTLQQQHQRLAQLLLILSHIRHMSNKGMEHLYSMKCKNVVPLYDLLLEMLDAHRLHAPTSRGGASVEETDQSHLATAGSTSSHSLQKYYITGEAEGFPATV", "test": "Displacement of [3H]-17beta-estradiol from ERalpha", "details": "not given", "units": {"IC50": "µM"}, "values": [
      {"compound": "O=C(c1ccc(N2CCN(C(=O)c3ccc(Cl)cc3)CC2)cc1)c1c(-c2ccc(O)cc2)sc2cc(O)ccc12", "IC50": 0.00022}
    ]},
    {"test_system": "not listed separately", "test": "Selectivity ratio of IC50 for ERbeta to IC50 for ERalpha", "details": "not given", "values": [
      {"compound": "Cc1cccc(C(=O)N2CCN(c3ccc(C(=O)c4c(-c5ccc(O)cc5)sc5cc(O)ccc45)cc3)CC2)c1", "Ratio IC50": 46.2},
      {"compound": "CC(C)N1CCN(c2ccc(C(=O)c3c(-c4ccc(O)cc4)sc4cc(O)ccc34)cc2)CC1", "Ratio IC50": 121},
      {"compound": "O=C(c1ccc(N2CCN(C(=O)c3ccc(Cl)cc3)CC2)cc1)c1c(-c2ccc(O)cc2)sc2cc(O)ccc12", "Ratio IC50": 41}
    ]},
    {"test_system": "MCF7", "test": "(§1) Antiproliferative activity against human MCF7 cells", "assay_type": "functional, cell-based", "details": "Homo sapiens, MCF7; read-out: IC50", "units": {"IC50": "µM"}, "values": [
      {"compound": "O=C(c1ccc(OCCN2CCCCC2)cc1)c1c(-c2ccc(O)cc2)sc2cc(O)c(O)cc12", "IC50": 0.4},
      {"compound": "Oc1ccc2c(Cc3ccc(OCCN4CCCCC4)cc3)c(C3CCCC3)sc2c1", "IC50": 0.01},
      {"compound": "COc1ccc(-c2sc3cc(O)ccc3c2C(=O)c2ccc(OCCN3CCCCC3)cc2)cc1", "IC50": 1},
      {"compound": "Oc1ccc2c(Cc3ccc(OCCN4CCCCC4)cc3)c(C3CCCCC3)sc2c1", "IC50": 0.01},
      {"compound": "O=C(c1ccc(OCCN2CCCCC2)cc1)c1c(-c2ccc(O)cc2)sc2cc(O)c(F)cc12", "IC50": 0.003},
      {"compound": "Cc1cc(-c2sc3cc(O)ccc3c2C(=O)c2ccc(OCCN3CCCCC3)cc2)ccc1O", "IC50": 0.001},
      {"compound": "CC(C)c1sc2cc(O)ccc2c1Cc1ccc(OCCN2CCCCC2)cc1", "IC50": 0.1},
      {"compound": "COc1ccc2c(C(=O)c3ccc(OCCN4CCCCC4)cc3)c([C@H]3CC[C@@H](O)CC3)sc2c1", "IC50": 0.1},
      {"compound": "COc1ccc2c(C(=O)c3ccc(OCCN4CCCCC4)cc3)c(-c3ccc(O)cc3)sc2c1", "IC50": 0.25},
      {"compound": "O=C(c1ccc(OCCN2CCCCC2)cc1)c1c(-c2ccc(O)c(Cl)c2)sc2cc(O)ccc12", "IC50": 0.0023},
      {"compound": "Cc1cc(-c2sc3cc(O)ccc3c2C(=O)c2ccc(OCCN3CCCCC3)cc2)cc(C)c1O", "IC50": 0.1},
      {"compound": "O=C(c1ccc(OCCN2CCCCC2)cc1)c1c(-c2ccc(O)cc2)sc2ccccc12", "IC50": 0.035},
      {"compound": "O=C(c1ccc(OCCN2CCCCC2)cc1)c1c(-c2ccc(O)c(F)c2)sc2cc(O)ccc12", "IC50": 0.0003},
      {"compound": "Cc1cc2c(C(=O)c3ccc(OCCN4CCCCC4)cc3)c(-c3ccc(O)cc3)sc2c(C)c1O", "IC50": 0.5},
      {"compound": "O=C(c1ccc(OCCN2CCCCC2)cc1)c1c2ccc(O)cc2sc1[C@H]1CC[C@H](O)CC1", "IC50": 0.0005},
      {"compound": "COc1ccc(-c2sc3cc(OC)ccc3c2C(=O)c2ccc(OCCN3CCCCC3)cc2)cc1", "IC50": 0.3},
      {"compound": "Oc1ccc2c(Cc3ccc(OCCN4CCCCC4)cc3)c([C@H]3CC[C@H](O)CC3)sc2c1", "IC50": 0.002},
      {"compound": "CCc1sc2cc(O)ccc2c1Cc1ccc(OCCN2CCCCC2)cc1", "IC50": 0.4},
      {"compound": "O=C(c1ccc(OCCN2CCCCC2)cc1)c1c(-c2ccccc2)sc2ccccc12", "IC50": 0.3},
      {"compound": "Cc1sc2cc(O)ccc2c1Cc1ccc(OCCN2CCCCC2)cc1", "IC50": 0.6}
    ]},
    {"test_system": "MCF7", "test": "as §1", "assay_type": "functional, cell-based", "details": "mcf7", "values": [
      {"compound": "C[C@]12CC[C@@H]3c4ccc(O)cc4CC[C@H]3[C@@H]1CC[C@@H]2O", "note": "[ESTRADIOL]", "IC50": "Not Active"}
    ]}
  ]
}
